Activity calls are given as the source filed them. No cut-off for these calls is given here.
Key:
Homo sapiens [1] = organism: Homo sapiens; experiment: Inhibition of hexa-His-tagged PAI-1 N152H/K156T/Q321L/M356I mutant (unknown origin) expressed in Escherichia coli BL21(DE3) at 100 uM after 10 mins by uPA-based assay
[2] = Inhibition of hexa-His-tagged PAI-1 N152H/K156T/Q321L/M356I mutant (unknown origin) expressed in Escherichia coli BL21(DE3) after 10 mins by uPA-based assay; design: species or system Homo sapiens
Homo sapiens [3] = organism: Homo sapiens; experiment: Ratio of embelin IC50 to compound IC50 for hexa-His-tagged PAI-1 N152H/K156T/Q321L/M356I mutant (unknown origin) expressed in Escherichia coli BL21(DE3)

inhibition (Homo sapiens [1]) | IC50 [2] | Ratio IC50 (Homo sapiens [3]) | SMILES
inactive | – | – | CCCCCCCCCCCC1=C(OC)C(=O)C=C(OC)C1=O
– | 1870 nM | – | CCCCCCCCC1=C(O)C(=O)C=C(O)C1=O
– | 510 nM | 10 | CCCCCCCC1=C(O)C(=O)C(CCCCCCC)=C(O)C1=O
– | 630 nM | 8 | CCCCCCCCCC1=C(O)C(=O)C(CCCCC)=C(O)C1=O
– | 770 nM | 6.5 | CCCCCCCCCC1=C(O)C(=O)C(Cc2ccccc2)=C(O)C1=O
– | 950 nM | 5 | CCCCCCCCCC1=C(O)C(=O)C(CCCCCCC)=C(O)C1=O
– | 380 nM | 13 | CCCCCCCCCC1=C(O)C(=O)C(CCC)=C(O)C1=O
– | 7110 nM | – | CCCCC1=C(O)C(=O)C(CCCC)=C(O)C1=O
– | 580 nM | 9 | CCCCCCC1=C(O)C(=O)C(CCCCCC)=C(O)C1=O
– | 5680 nM | – | CCCC1=C(O)C(=O)C(CCC)=C(O)C1=O
– | 4560 nM | – | CCCCCC1=C(O)C(=O)C=C(O)C1=O
– | 1780 nM | – | CCCCCCCCCC1=C(O)C(=O)C=C(O)C1=O
– | 4940 nM | – | CCCCCCCCCCCC1=C(O)C(=O)C=C(O)C1=O [EMBELIN]
– | 4180 nM | – | CCCCCCC1=C(O)C(=O)C=C(O)C1=O
– | 90200 nM | – | CCCCCCCCCCCC1=C(O)C(=O)C=C(OC)C1=O [5-O-METHYLEMBELIN]
– | 3870 nM | – | CCCCCCCC1=C(O)C(=O)C=C(O)C1=O
– | 180 nM | 27 | CCCCCCCCCC1=C(O)C(=O)C(CCCC)=C(O)C1=O
– | 920 nM | 5 | CCCCCC1=C(O)C(=O)C(CCCCC)=C(O)C1=O
– | 890 nM | 5 | CCCCCCCCC1=C(O)C(=O)C(CCCCCCCC)=C(O)C1=O
– | 750 nM | 6.5 | C=CCC1=C(O)C(=O)C(CCCCCCCCC)=C(O)C1=O

Source: ChEMBL document CHEMBL3259521, “Design, synthesis, and SAR of embelin analogues as the inhibitors of PAI-1 (plasminogen activator inhibitor-1)” (Bioorg Med Chem Lett, 2014)
